Laboratory results taken from US6482975B1, “Bis-poly(ethylene oxide) surfactants and their use as antistats in photographic materials” (Eastman Kodak Company, priority 1998, dated 2002).

Experiments:
[1] = Critical micelle concentration from surface tension data in aqueous 7% w/w gelatin solution; format: physicochemical; conditions: aqueous solution containing 7% wt/wt deionised Type IV bone gelatin
Method: (§1) A number of surfactants were tested for their ease of dissolution in water. Furthermore, the critical micelle concentrations (CMCs) of the surfactants were determined in aqueous solution containing 7% weight/weight deionised Type IV bone gelatin. The CMCs were determined from surface tension data by estimating the break point in the plot of surface tension against log concentration (see M. J. Rosen, Surfactants and Interfacial Phenomena, 2nd Edition, Wiley (1989), 110).

[2] = Ease of dissolution of surfactant in water; format: physicochemical
Method: as §1

CMC in molar terms (M) moles kg^−1 [1]	Solubility in Water [2]	Substance
0.0003 M	Requires relatively long stirring	CxF2x+1(CH2)y—(CH2CH2O) z—OH [Zonyl FSN]
6e-05 M	Dissolves easily with gentle	Fluoroalkylthiosuccinic acid, Polyethylene glycol diester (II, R=C6F13CH2CH2,p=7)
